# Source: US6943191B1, “Disubstituted lavendustin A analogs and pharmaceutical composition comprising the analogs” (The United States of America as represented by the …, priority 1998, dated 2005)
# Like-named read-outs stand apart in the source and are kept apart here.
# How the values were obtained:
# [1] = test system: K562 cells; test: K562 cell culture and growth assay, 6 day MTT; format: cell-based, human; details: Homo sapiens, 144 h, K562, 6 days, 4 or more experiments
# Protocol: This example describes the procedure used for cell culture and growth assays. Human leukemia, Philadelphia-chromosome-positive CML cell line K562 was obtained from ATCC (Rockville, Md.). Cells were cultured in RPMI medium containing 10% fetal calf serum, 2 mM glutamine, 100 units/ml of penicillin and 100 μg/ml streptomycin Cells (2×10^3 cells/well) were incubated with increasing concentrations of compounds of the present invention dissolved in DMSO in a final volume of 200 μl in 96-well plates. Control cells were incubated with medium containing identical concentrations of the DMSO solvent. Growth of K562 cells was quantitated after 6 days by ability of living cells to reduce the yellow dye 3-(4,5-dimethylthiazolyl)-2,5-diphenyltetrazolium bromide (MTT) to a blue formazan product. Further information concerning this procedure is provided by Mossman T., “Rapid Colorimetric Assay for Cellular Growth and Survival—Application to Proliferation and Cytotoxicity Assays,” J. Immunol. Methods 1983, 65:55-63, which is incorporated herein by reference.
# [2] = target: T1, p210^bcr-abl (Homo sapiens, UniProt P00519); test: Inhibition of in vitro auto-phosphorylation of p210^bcr-abl, immune-complex kinase assay; format: biochemical; details: immune complex kinase assay, 3 experiments, read-out: Enzyme Assays IC50 (μM) p210bcl-abl in vitro phosphorylation
# T1 construct: immune complexes containing ^32P-labeled p210^bcr-abl were collected on protein Sepharose beads; BCR (N-terminal part of the breakpoint cluster region protein, natural fusion partner); endogenous in cells; host or cells: K562 cells (lysate, immunoprecipitated on Protein A-Sepharose); the other entry of the earlier key: BCR (P11274, Breakpoint cluster region protein)
# Protocol: Inhibition of in vitro auto-phosphorylation of p210^bcr-abl in immune-complex kinase assays were conducted as follows. K562 cell line cells were washed twice in […]. The washed cells were lysed in PLC lysis buffer 150 mM HEPES (pH 7.5), 150 mM NaCl, 10% (v/v) glycerol, 1% (v/v) Triton X-100, 1.5 mM MgCl2, 1 mM EGTA. 10 μg/ml leupeptin, 10 μg/ml aprotinin, 1 mM sodium orthovanadate. 10 mM sodium pyrophosphate, 100 mM sodium fluoride and 1 mM phenylmethyl sulfonyl fluoride| Cell lysates were centrifuged at 100,000 g for 15 minutes and the supernatant collected. Protein concentrations of the clarified supernatants were determined by the Bradford Protein Assay, and the same quantity of protein was immunoprecipitated from control (vehicle-treated) and drug-treated cells. Cell lysates were incubated and gently rocked at 4° C. for 4 hours overnight with antibodies. Immune complexes were collected by incubation with Protein A-Sepharose beads (Pharmacia, Piscataway N.J.) and immune complexes (beads) were washed three times with HNTG buffer [20 mM HEPES (pH 7.5), 10% glycerol, 0.1% Triton X-100, 150 mM NaCl and 1 mM sodium orthovanadate] to remove unbound material. Bound proteins were boiled for 5 minutes in 2×SDS sample buffer (63 mM Tris-HCl, ph 6.8; 10% glycerol; 2% SDS; 0.0025% bromophenol blue: and […] 2 mercaptoethanol) prior to SDS-PAGE. Proteins were resolved on 4-20% gradient mini gels from Novex Experimental Technology (San Diego, Calif.).
# After SDS-PAGE, proteins were electrophoretically transferred onto Immobilon polyvinylidene difluoride (PVDF) membranes (Millipore, Bedford, Mass.) at 250 mA for 4 hours at 4° C. using 2× Tris glycine transfer buffer (50 mM Tris, glycine), 20% methanol and 0.1% SDS. Residual binding sites on the membrane were blocked by incubation in TTS (20 mM Tris pH 7.4, 0.9% NaCl and 0.05% Tween 20) containing 3% BSA overnight at 4° C. or for 4 hours at room temperature. Blots were incubated for 1-1.5 hours with TTS containing 0.3% BSA with 1 μg/ml of mouse anti-P-Tyr, 2 μg/ml of mouse anti-Grb2 or 1 μg/ml of rabbit anti-She antibody. Blots were washed three times for 6 minutes each with TTS containing 0.3% BSA and probed with a 1:1000 dilution of rabbit anti-mouse antibody or directly with [^125I]Protein A (Amersham, Arlington Heights, Ill.) in blocking solutions. Proteins were visualized by autoradiography (exposed for 1-2 days at −70° C.).
# The p210^bcr-abl, protein immunoprecipitates were washed twice with HTNG buffer Immunoprecipitates were washed once with 50 mM Tris (pH 7.0) and distributed to each reaction in 20 μl of 20 mM PIPES [piperazine-N,N′-bis(ethanesulfonic acid)] (pH 7.0)−20 mM MnCl2. Then, 10 μl of compounds made according to the present invention at desired concentrations from working stock solution prepared in 20 mM PIPEs (pH 7.0)−20 mM MnCl2 were added to each reaction tube. Reactions were initiated with the addition of 10 μl of [γ-^33P]ATP (10 μCi per sample, 3000 Ci/mmol; Amersham), incubated for 20 minutes at 30° C., stopped by addition of 10 μl of 5×SDS sample buffer, heated at 100° C. for 5 minutes, and analyzed on 4-20% SDS-PAGE and by autoradiography.
# To assess the effect of drugs added in vitro on the state of p210^bcr-abl in the immune complexes, K562 cells were labeled with ^32P, lysed in PLC buffer and immune complexes containing ^32P-labeled p210^bcr-abl were collected on protein Sepharose beads and beads were washed four times with HNTG buffer. Immune complexes were divided into several tubes in 30 μl of PLC buffer in the presence of compounds made as described herein.
# [3] = test system: panel of approximately 60 different human tumor cell lines; test: National Cancer Institute drug screen, mean-graph parameters; format: cell-based; details: mean over cell line panel, two days exposure; for GI50: Homo sapiens, 48 h, read-out: Tumor cell Mean log GI50 (converted)
# Protocol: Compounds of the present invention also have been subjected to the drug screening procedure employed by the National Cancer Institute for the screening of drugs having possible anticancer utility. The screening procedure uses a diverse, disease-oriented panel consisting of approximately 60 different human tumor cell lines organized into disease-specific subpanels. The compounds of the present invention were tested over a range of concentrations for cytotoxic or growth-inhibitory effects against cell lines comprising the panel. The eight subpanels represented diverse histologies (leukemias, melanomas, and tumors of the lung, colon, kidney, breast, ovary, and brain).
# Compounds of the present invention were tested over a period of two days. During this period the cells were continuously exposed to various concentrations of the compounds tested. The tests produced individual dose-responses, one for each cell line (i.e. one for each example), and the data were represented in dose-response curves. The data provided by these dose response curves were summarized using a mean-graph format.
# To produce data for the mean-graph format, a compound concentration that produced a target level response was calculated for each cell line. Three different response parameters were evaluated. The first response parameter was the growth inhibition (“GI50”). GI50 is the concentration of compounds made according to the present invention that produced an apparent 50% decrease in the number of tumor cells relative to the appropriate control (not exposed to the compounds of the present invention) at the end of the incubation period.
# The second response parameter was the total growth inhibition (“TGI”). TGI is the concentration at which the number of tumor cells remaining at the end of the incubation period substantially equal the number of tumor cells existing at the start of the incubation period.
# The third response parameter was the lethal concentration (“LC50”) LC50 is the concentration of compounds made according to the present invention that caused an apparent 50 percent reduction in the number of tumor cells […] at the start of the incubation period.
# In a typical GI50 mean graph, the relative position of the vertical reference line along the horizontal concentration axis was obtained by averaging the negative log10GI50 values for all the cell lines tested against the compound. Horizontal bars were then plotted for the individual negative log10GI50 values of each cell line relative to the vertical reference line. The GI50 graph thus provided a characteristic fingerprint for the compound, displaying the individual cell lines that are proportionately more sensitive than average (bars extending to the right of the reference line) or proportionately less sensitive than average (bars extending to the left of the reference line). The length of a bar was proportional to the difference between the log10GI50 value obtained with the particular cell line and the mean (represented by the vertical reference line).
# Similar mean graphs were prepared for the TGI and LC50 response parameters.
# [4] = Table 9, mean ± S.E., read-out: IC50 (μM) 6dMTT
# [5] = Table 8, mean+S.E., read-out: IC50 (μM) 6 dMTT
# T1 sequence (P00519 with tags, fused parts or gaps): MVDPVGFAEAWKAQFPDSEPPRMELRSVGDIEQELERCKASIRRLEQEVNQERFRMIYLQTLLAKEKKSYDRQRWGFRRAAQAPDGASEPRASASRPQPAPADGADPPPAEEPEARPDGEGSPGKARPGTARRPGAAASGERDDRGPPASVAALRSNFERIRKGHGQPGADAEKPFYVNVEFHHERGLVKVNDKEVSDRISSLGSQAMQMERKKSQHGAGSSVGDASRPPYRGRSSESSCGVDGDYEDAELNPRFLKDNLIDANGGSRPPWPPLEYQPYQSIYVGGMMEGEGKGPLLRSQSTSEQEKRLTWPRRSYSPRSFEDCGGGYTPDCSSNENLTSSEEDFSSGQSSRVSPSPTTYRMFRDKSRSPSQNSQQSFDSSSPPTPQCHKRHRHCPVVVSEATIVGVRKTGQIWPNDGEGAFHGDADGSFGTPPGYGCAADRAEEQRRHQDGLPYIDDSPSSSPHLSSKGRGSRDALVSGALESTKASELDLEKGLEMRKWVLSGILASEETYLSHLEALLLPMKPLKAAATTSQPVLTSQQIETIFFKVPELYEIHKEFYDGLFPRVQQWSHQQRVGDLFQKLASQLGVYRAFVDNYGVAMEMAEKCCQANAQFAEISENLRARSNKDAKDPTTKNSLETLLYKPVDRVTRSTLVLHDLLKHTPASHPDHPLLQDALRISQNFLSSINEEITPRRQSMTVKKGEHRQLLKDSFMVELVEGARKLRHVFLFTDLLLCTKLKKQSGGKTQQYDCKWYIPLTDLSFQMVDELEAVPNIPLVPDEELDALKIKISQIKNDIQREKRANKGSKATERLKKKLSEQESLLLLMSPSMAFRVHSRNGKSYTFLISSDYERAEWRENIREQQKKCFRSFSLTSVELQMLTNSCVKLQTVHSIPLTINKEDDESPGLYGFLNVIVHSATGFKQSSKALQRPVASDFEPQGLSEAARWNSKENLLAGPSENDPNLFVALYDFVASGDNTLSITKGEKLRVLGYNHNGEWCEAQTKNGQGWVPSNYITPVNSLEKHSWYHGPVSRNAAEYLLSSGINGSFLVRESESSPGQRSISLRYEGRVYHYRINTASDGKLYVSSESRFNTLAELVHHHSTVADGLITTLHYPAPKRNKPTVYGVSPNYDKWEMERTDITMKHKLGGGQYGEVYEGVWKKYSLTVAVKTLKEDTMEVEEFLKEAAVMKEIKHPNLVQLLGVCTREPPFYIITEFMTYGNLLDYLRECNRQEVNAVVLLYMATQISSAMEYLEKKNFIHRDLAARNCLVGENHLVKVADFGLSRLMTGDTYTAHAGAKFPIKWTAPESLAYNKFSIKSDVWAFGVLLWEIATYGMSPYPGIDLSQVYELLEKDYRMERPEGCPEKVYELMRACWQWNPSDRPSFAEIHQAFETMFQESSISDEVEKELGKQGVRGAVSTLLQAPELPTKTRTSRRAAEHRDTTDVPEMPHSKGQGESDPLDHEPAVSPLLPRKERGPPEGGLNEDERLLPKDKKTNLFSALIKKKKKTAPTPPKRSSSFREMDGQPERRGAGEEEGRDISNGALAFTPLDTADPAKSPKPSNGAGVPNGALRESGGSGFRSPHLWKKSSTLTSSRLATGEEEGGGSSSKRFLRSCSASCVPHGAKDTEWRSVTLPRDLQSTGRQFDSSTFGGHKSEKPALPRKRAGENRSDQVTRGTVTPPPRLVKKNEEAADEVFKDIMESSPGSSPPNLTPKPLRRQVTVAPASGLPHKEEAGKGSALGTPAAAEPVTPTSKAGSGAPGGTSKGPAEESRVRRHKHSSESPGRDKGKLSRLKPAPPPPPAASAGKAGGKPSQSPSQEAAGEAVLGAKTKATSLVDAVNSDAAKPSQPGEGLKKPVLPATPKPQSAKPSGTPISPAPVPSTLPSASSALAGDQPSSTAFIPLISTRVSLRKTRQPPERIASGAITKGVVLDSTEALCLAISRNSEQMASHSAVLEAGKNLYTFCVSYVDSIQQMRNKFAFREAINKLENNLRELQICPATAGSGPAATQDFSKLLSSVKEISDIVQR
"IC50 [1, 4] [µM]","IC50 ([2]; Table 9, mean ± S.E.) [µM]",Compound,GI50 ([3]; Table 9) [µM],Tumor Cell Mean log TGI ([3]; Table 9),"IC50 [1, 5] [µM]","IC50 ([2]; Table 8, mean+S.E.) [µM]",Tumor Cell Mean log GI50 ([3]; Table 8),Tumor Cell Mean log TGI ([3]; Table 8)
24.8 ± 3.1,2.38 ± 0.45,"O=C1C=CC(=O)C(CNc2ccc(C(=O)OC34CC5CC(CC(C5)C3)C4)cc2)=C1Br [Compound 23, 4′-adamantylbenzoate-1′-N-2-bromo-p-quinone-3-methyl amine]",7.59,−4.60,–,–,–,–
64.8 ± 1.22,2.68 ± 1.33,"CC(C)(C)OC(=O)c1ccc(NCC2=C(Br)C(=O)C=CC2=O)cc1 [Compound 24, 4′-t-butylbenzoate-1′-N-2-bromo-p-quinone-3-methyl amine]",17.8,−4.31,–,–,–,–
17.5 ± 0.1,2.35 ± 0.41,"COC(=O)c1ccc(NCC2=C(Br)C(=O)C=CC2=O)cc1Cl [Compound 25, 3′-chloro-4′-methylbenzoate-1′-N-2-bromo-p-quinone-3-methyl amine]",21.9,−4.34,–,–,–,–
27.7 ± 0.6,3.01 ± 1.75,"CC(C)OC(=O)c1ccc(NCC2=CC(=O)C=CC2=O)cc1Cl [Compound 26, 3′-chloro-4′-isopropylbenzoate-1′-N-p-quinone-2-methyl amine]",9.55,−4.41,–,–,–,–
–,–,"O=C(O)c1cc(N(Cc2ccccc2O)Cc2cc(O)ccc2O)ccc1O [Lavendustin A, 5-[(2,5-dihydroxy-benzyl)-(2-hydroxy-benzyl)-amino]-2-hydroxy-benzoic acid]",–,–,44.7,41.1,−4.06,−4.00
–,–,"COP(=O)(OC)c1ccc(NCc2cc(O)ccc2O)cc1 [O═P(OCH3)2 / H / H, 4′-phenylphosphonate-1-N-2,5-dihydroxybenzylamine]",–,–,9.83,0.49,−4.61,−4.23
